Data reported in patent US20250066286A1, “COMPOSITIONS OF (Z)-ENDOXIFEN AND METHODS OF ENRICHMENT THEREOF” (Atossa Therapeutics, Inc., priority 2022, published 2025).

Test: Single solvent slurries of (Z)-endoxifen (XRPD of recovered solid)
Type: physicochemical
Protocol: Further solubility analyses were then performed for solvents which formed suspensions at 50° C. […] The suspensions were recovered and filtered with a nylon filter (0.22 μm) during centrifugation at 4000 rpm for 3 minutes. The solid (Z)-endoxifen collected through filtration was analyzed by XRPD. (Z)-endoxifen remaining in the filtrate was precipitated by addition of antisolvent and also subjected to XRPD analysis.

[1] = SLHT-1D-ACN(100 mg/ml) - Form I reference, FIG. 76: acetonitrile, 100 mg/mL, 50° C., 1 d
[2] = SLHT-1D-ACT(100 mg/ml), FIG. 77: acetone, 100 mg/mL, 40° C., 1 d
[3] = SLRT-14D-BME, FIG. 74: butyl methyl ether, 10 mg/mL, RT, 14 d

CC/C(=C(\c1ccc(O)cc1)c1ccc(OCCNC)cc1)c1ccccc1 [(Z)-endoxifen, (Z)-4-(1-(4-(2-(methylamino)ethoxy)phenyl)-2-phenylbut-1-enyl)phenol]
Output Main phase [phase] (SLHT-1D-ACN(50 mg/ml), FIG. 80: acetonitrile, 50 mg/mL, 50° C., 1 d): Form I
Output Main phase [phase] (SLHT-1D-ACN(50 mg/ml)-vial attached, FIG. 92: acetonitrile, 50 mg/mL, 50° C., 1 d): Form I
Output Crystallinity [high/low/SC/oriented] [1]: high
Output Main phase [phase] [1]: Form I
Output Main phase [phase] (SLHT-1D-ACT(50 mg/ml), FIG. 80: acetone, 50 mg/mL, 40° C., 1 d): Form I
Output Crystallinity [high/low/SC/oriented] [2]: high
Output Main phase [phase] [2]: Form I
Output Main phase [phase] (SLHT-1D-BME, FIG. 75: butyl methyl ether, 10 mg/mL, 40° C., 1 d): Form I
Output Main phase [phase] (SLHT-1D-H2O, FIG. 75: water, 10 mg/mL, 50° C., 1 d): Form I
Output Main phase [phase] (SLHT-1D-HEP, FIG. 75: heptane, 10 mg/mL, 50° C., 1 d): Form I
Output Main phase [phase] (SLRT-1D-DMF(300 mg/ml), FIG. 81: dimethylformamide, 300 mg/mL, RT, 1 d): Form I
Output Main phase [phase] (SLRT-1D-ETA(20 mg/ml), FIG. 81: ethyl acetate, 20 mg/mL, RT, 1 d): Form I
Output Main phase [phase] (SLRT-2D-THF(170 mg/ml), FIG. 81: tetrahydrofuran, 169.7 mg/mL, RT, 2 d): Form I
Output Main phase [phase] (SLRT-3D-ACT(40 mg/ml), FIG. 78: acetone, 40 mg/mL, RT, 3 d): Form I
Output Main phase [phase] (SLRT-3D-BME, FIG. 73: butyl methyl ether, 10 mg/mL, RT, 3 d): Form I
Output Main phase [phase] (SLRT-3D-ETH(40 mg/ml), FIG. 78: ethanol, 40 mg/mL, RT, 3 d): Form I
Output Main phase [phase] (SLRT-3D-H2O, FIG. 73: water, 10 mg/mL, RT, 3 d): Form I
Output Main phase [phase] (SLRT-3D-HEP, FIG. 73: heptane, 10 mg/mL, RT, 3 d): Form I
Output Main phase [phase] (SLRT-6HRS-ACT(40 mg/ml), FIG. 81: acetone, 40 mg/mL, RT, 6 h): Form I
Output Main phase [phase] (SLRT-14D-2PR(100 mg/ml), FIG. 83: 2-propanol, 100 mg/mL, RT, 14 d): Form I
Output Main phase [phase] (SLRT-14D-ACN(100 mg/ml), FIG. 83: acetonitrile, 100 mg/mL, RT, 14 d): Form I
Output Main phase [phase] (SLRT-14D-ACT(40 mg/ml), FIG. 79: acetone, 40 mg/mL, RT, 14 d): Form I
Output Main phase [phase] (SLRT-14D-ACT(100 mg/ml), FIG. 83: acetone, 100 mg/mL, RT, 14 d): Form I
Output Main phase [phase] (SLRT-14D-BAC(100 mg/ml), FIG. 82: butyl acetate, 100 mg/mL, RT, 14 d): Form I
Output Crystallinity [high/low/SC/oriented] [3]: low
Output Main phase [phase] [3]: Form I
Output Main phase [phase] (SLRT-14D-ETA(100 mg/ml), FIG. 82: ethyl acetate, 100 mg/mL, RT, 14 d): Form I
Output Main phase [phase] (SLRT-14D-ETH(40 mg/ml), FIG. 79: ethanol, 40 mg/mL, RT, 14 d): Form I
Output Main phase [phase] (SLRT-14D-ETH(100 mg/ml), FIG. 82: ethanol, 100 mg/mL, RT, 14 d): Form I
Output Main phase [phase] (SLRT-14D-H2O, FIG. 74: water, 10 mg/mL, RT, 14 d): Form I
Output Main phase [phase] (SLRT-14D-HEP, FIG. 74: heptane, 10 mg/mL, RT, 14 d): Form I
Output Main phase [phase] (SLRT-14D-MET(50 mg/ml), FIG. 84: methanol, 50 mg/mL, RT, 14 d): Form I
Output Main phase [phase] (SLRT-14D-MIBK(100 mg/ml), FIG. 82: methyl isobutyl ketone, 100 mg/mL, RT, 14 d): Form I
Output Main phase [phase] (SLRT-14D-TOL(100 mg/ml), FIG. 83: toluene, 100 mg/mL, RT, 14 d): Form I
Polymorphic form recovered (XRPD) (all single solvent slurries): Form I
